Experimental data from US20260130933A1, “PHARMACEUTICAL COMPOSITION FOR PREVENTION OR TREATMENT OF NEPHROPATHY AND/OR DIABETES MELLITUS, COMPRISING ENAVOGLIFLOZIN” (DAEWOONG PHARMACEUTICAL CO., LTD., priority 2022, published 2026).

Assay: Example 3: phase 3 trial, enavogliflozin 0.3 mg vs dapagliflozin 10 mg once a day for 24 weeks added to metformin and gemigliptin in patients with type 2 diabetes (same endpoints, rescue drug)
Type: in vivo, human
Description: 1) when Metformin (≥1,000 mg/Day) was Administered at a Constant Dose for at Least 8 Weeks Prior to Pre-Visit (Pre-Screening) • Metformin (≥1,000 mg/day) and gemigliptin (50 mg/day) were co-administered during the 8-week stabilization period. […] 4) when Metformin (≥1,000 mg/Day) and Gemigliptin (50 mg/Day) were Co-Administered at Constant Doses for at Least 8 Weeks Prior to Pre-Visit (Prescreening) • Without a separate stabilization period, Pre-visit (pre-screening) was Visit 1 (screening).
Subjects who met the inclusion/exclusion criteria continued to receive metformin and gemigliptin while receiving a placebo of the clinical trial drug in a single-blind (subject-blinded) state for a 2-week run-in period.
Here, the randomized subjects were stratified according to the administration therapy (co-administration with two or less agents (one or two agents) or three or more agents) of a conventional hypoglycemic agent (before washout of another hypoglycemic agent) within 24 weeks prior to obtaining written informed consent and by an HbA1c value (<8% or ≥8%) at Visit 1 (screening) measured in the central laboratory.
The randomized subjects were administered two tablets of the clinical trial drug corresponding to each administration group once a day, and then visited the institution at weeks 6, 12, 18, and 24 during the 24-week administration period to conduct efficacy and safety assessments. In addition, during the clinical trial period, they were instructed to exercise regularly and control their diet without changing their daily life patterns.
• 1) Change in HbA1c at week 24 after administration of clinical trial drug compared to Visit 2 (randomization)
• 1) Change in HbA1c at each time point of weeks 6, 12, and 18 after administration of clinical trial drug compared to Visit 2 (randomization) • 2) Change in FPG at each time point of weeks 6, 12, 18, and 24 after administration of clinical trial drug compared to Visit 2 (randomization) • 3) Proportion of subjects achieving HbA1c<7% at each time point of weeks 6, 12, 18, and 24 after administration of clinical trial drug • 4) Proportion of subjects achieving HbA1c<6.5% at each time point of weeks 6, 12, 18, and 24 after administration of clinical trial drug • 5) Proportion of subjects achieving therapeutic response (HbA1c change (HbA1c at Visit 2—HbA1c at each evaluation time point)>0.5% or HbA1c<7% at each evaluation time point compared to Visit 2 (randomization)) at each time point of weeks 6, 12, 18, and 24 after administration of clinical trial drug • 6) Proportion of subjects achieving therapeutic response (HbA1c change (HbA1c at Visit 2—HbA1c at each evaluation time point)>0.7% or HbA1c<7% at each evaluation time point compared to Visit 2 (randomization)) at each time point of weeks 6, 12, 18, and 24 after administration of clinical trial drug • 7) Proportion of subjects achieving therapeutic response (HbA1c change (HbA1c at Visit 2—HbA1c at each evaluation time point)>1% or HbA1c<7% at each evaluation time point compared to Visit 2 (randomization)) at each time point of weeks 6, 12, 18, and 24 after administration of clinical trial drug

[1] = week 18, per-protocol set, enavogliflozin 0.3 mg, dapagliflozin 10 mg
[2] = week 24, modified per-protocol set 1, enavogliflozin 0.3 mg vs dapagliflozin 10 mg
[3] = week 24, modified per-protocol set 1, enavogliflozin 0.3 mg, dapagliflozin 10 mg
[4] = week 24, modified per-protocol set 2

Structure (SMILES): OC[C@H]1O[C@@H](c2cc(Cc3ccc(C4CC4)cc3)c(Cl)c3c2CCO3)[C@H](O)[C@@H](O)[C@@H]1O [Enavogliflozin, (2S,3R,4R,5S,6R)-2-(7-chloro-6 (4-cyclopropylbenzyl)-2,3-dihydrobenzofuran-4-yl)-6-(hydroxymethyl)tetrahydro-2H-pyran-3,4,5-triol]
- HbA1c, Median [1]: 6.87%
- Subjects achieving HbA1c target of <6.5%, (%) [1]: 14.53%
- Subjects achieving HbA1c target of <7%, % [1]: 63.25%
- body weight, Median [1]: 65.40 kg
- Subjects achieving therapeutic glycemic response 2, % (week 18, per-protocol set, response 2 = HbA1c change >0.7% or HbA1c <7%, enavogliflozin 0.3 mg, dapagliflozin 10 mg): 77.78%
- Subjects achieving therapeutic glycemic response 3, % (week 18, per-protocol set, response 3 = HbA1c change >1% or HbA1c <7%, enavogliflozin 0.3 mg, dapagliflozin 10 mg): 74.36%
- FPG change from baseline, LS mean (SE) (week 24): −27.21(1.81) mg/dL
- HDL-C change from baseline, LS mean (SE) (week 24): 4.32(0.71) mg/dL
- HOMA-IR change from baseline, LS mean (SE) (week 24): −1.09(0.11)
- HOMA-β change from baseline, LS mean (SE) (week 24): 1.09(4.79)
- HbA1c change from baseline, LS mean (SE) (week 24): −0.92(0.05) % p
- HbA1c change from baseline, Mean (SD) (week 24): −0.93(0.70) % p
- LDL-C change from baseline, LS mean (SE) (week 24): 0.85(1.89) mg/dL
- UACR change from baseline, LS mean (SE) (week 24): −15.34 (3.93) g/kg
- UGCR change from baseline, LS mean (SE) (week 24): 60.22(2.31) mg/mg
- adiponectin change from baseline, LS mean (SE) (week 24): 1.42(0.35) μg/mL
- body weight change from baseline, LS mean (SE) (week 24): −3.15(0.23) kg
- diastolic blood pressure change from baseline, LS mean (SE) (week 24): −2.55(0.72) mmHg
- fasting C-peptide change from baseline, LS mean (SE) (week 24): −0.09(0.02) ng/ml
- leptin change from baseline, LS mean (SE) (week 24): −1.46(0.52) ng/mL
- systolic blood pressure change from baseline, LS mean (SE) (week 24): −4.49(0.96) mmHg
- total cholesterol change from baseline, LS mean (SE) (week 24): 4.48(2.07) mg/dL
- triglyceride change from baseline, LS mean (SE) (week 24): −8.22(4.01) mg/dL
- Odds ratio for administering the rescue drug (week 24, FAS, vs dapagliflozin): 0.36
- FPG change from baseline, LS mean difference (week 24, vs dapagliflozin): -3.49 mg/dL
- HDL-C change from baseline, LS mean difference (week 24, vs dapagliflozin): -0.08 mg/dL
- HOMA-IR change from baseline, LS mean difference (week 24, vs dapagliflozin): −0.16
- HOMA-β change from baseline, LS mean difference (week 24, vs dapagliflozin): −4.69
- HbA1c change from baseline, LS mean difference (week 24, vs dapagliflozin): −0.06 % p
- LDL-C change from baseline, LS mean difference (week 24, vs dapagliflozin): -2.27 mg/dL
- Odds ratio for achieving HbA1c<6.5% (week 24, vs dapagliflozin): 1.27
- Odds ratio for achieving HbA1c<7% (week 24, vs dapagliflozin): 1.17
- Odds ratio, therapeutic response (HbA1c change >0.5% or HbA1c<7%) (week 24, vs dapagliflozin): 1.15
- Odds ratio, therapeutic response (HbA1c change >0.7% or HbA1c<7%) (week 24, vs dapagliflozin): 0.98
- Odds ratio, therapeutic response (HbA1c change >1% or HbA1c<7%) (week 24, vs dapagliflozin): 1.22
- UACR change from baseline, LS mean difference (week 24, vs dapagliflozin): 0.79 g/kg
- UGCR change from baseline, LS mean difference (week 24, vs dapagliflozin): 16.71 mg/mg
- adiponectin change from baseline, LS mean difference (week 24, vs dapagliflozin): 0.49 µg/mL
- body weight change from baseline, LS mean difference (week 24, vs dapagliflozin): -0.15 kg
- diastolic blood pressure change from baseline, LS mean difference (week 24, vs dapagliflozin): −0.66 mmHg
- fasting C-peptide change from baseline, LS mean difference (week 24, vs dapagliflozin): -0.01 ng/mL
- leptin change from baseline, LS mean difference (week 24, vs dapagliflozin): -0.89 ng/mL
- systolic blood pressure change from baseline, LS mean difference (week 24, vs dapagliflozin): −0.22 mmHg
- total cholesterol change from baseline, LS mean difference (week 24, vs dapagliflozin): -1.09 mg/dL
- triglyceride change from baseline, LS mean difference (week 24, vs dapagliflozin): 0.56 mg/dL
- Change from baseline in HDL-C, ANCOVA LS mean difference [2]: -0.08 mg/dL
- Change from baseline in LDL-C, ANCOVA LS mean difference [2]: -2.27 mg/dL
- Change from baseline in total cholesterol, ANCOVA LS mean difference [2]: -1.09 mg/dL
- Change from baseline in triglycerides, ANCOVA LS mean difference [2]: 0.56 mg/dL
- Change from baseline in HDL-C, ANCOVA LS mean [3]: 4.32 mg/dL
- Change from baseline in HDL-C, Mean [3]: 4.53 mg/dL
- Change from baseline in HDL-C, Median [3]: 4.00 mg/dL
- Change from baseline in LDL-C, ANCOVA LS mean [3]: 0.85 mg/dL
- Change from baseline in LDL-C, Mean [3]: 1.75 mg/dL
- Change from baseline in LDL-C, Median [3]: 0.50 mg/dL
- Change from baseline in total cholesterol, ANCOVA LS mean [3]: 4.48 mg/dL
- Change from baseline in total cholesterol, Mean [3]: 5.59 mg/dL
- Change from baseline in total cholesterol, Median [3]: 5.50 mg/dL
- Change from baseline in triglycerides, ANCOVA LS mean [3]: -8.22 mg/dL
- Change from baseline in triglycerides, Mean [3]: -6.05 mg/dL
- Change from baseline in triglycerides, Median [3]: -1.00 mg/dL
- Fasting HDL-C, Mean [3]: 50.58 mg/dL
- Fasting HDL-C, Median [3]: 48.50 mg/dL
- Fasting LDL-C, Mean [3]: 73.15 mg/dL
- Fasting LDL-C, Median [3]: 70.50 mg/dL
- Fasting total cholesterol, Mean [3]: 140.06 mg/dL
- Fasting triglycerides, Mean [3]: 113.01 mg/dL
- Fasting triglycerides, Median [3]: 101.00 mg/dL
- fasting Total cholesterol, Median [3]: 134.00 mg/dL
- Change from baseline in diastolic blood pressure, ANCOVA LS mean [4]: −2.55 mmHg
- Change from baseline in diastolic blood pressure, LS mean difference (enavogliflozin − dapagliflozin) [4]: −0.66 mmHg
- Change from baseline in diastolic blood pressure, Mean [4]: −3.19 mmHg
